From PubChem BioAssay (NCI)
Several values for one entry are separate records, joined by “and”; a condition that tells them apart may be missing. Equal values may be shown once.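 Five compound concentrations were applied to cells in 96-well plates for 48 hours; endpoints were derived by simple linear interpolation of the resulting dose-response curve. Here, GI50 denotes the concentration required for 50% inhibition of growth. TGI denotes the concentration required for complete inhibition of growth.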

Columns and labels:
Test in all cases: NCI tumour cell line growth inhibition, 48 h
SK-MEL-28 melanoma = tested on: SK-MEL-28 melanoma
UO-31 renal = tested on: UO-31 renal
A549 NSCLC = tested on: A549 NSCLC
M14 melanoma = tested on: M14 melanoma
U251 CNS = tested on: U251 CNS
MDA-MB-435 = tested on: MDA-MB-435
SW-620 colon = tested on: SW-620 colon
SK-MEL-5 melanoma = tested on: SK-MEL-5 melanoma

SMILES | GI50 (SK-MEL-28 melanoma) | TGI (SK-MEL-28 melanoma) | GI50 (UO-31 renal) | TGI (UO-31 renal) | GI50 (A549 NSCLC) | TGI (A549 NSCLC) | GI50 (M14 melanoma) | TGI (M14 melanoma) | GI50 (U251 CNS) | TGI (U251 CNS) | GI50 (MDA-MB-435) | TGI (MDA-MB-435) | GI50 (SW-620 colon) | TGI (SW-620 colon) | GI50 (SK-MEL-5 melanoma) | TGI (SK-MEL-5 melanoma)
CCCCCCCCCCCCCCCCn1cc[n+](C)c1 | 0.707 µM | 2.05 µM | 1.04 µM | 2.24 µM | 0.326 µM | 1.6 µM | 0.268 µM | 1.3 µM | 0.356 µM | 1.53 µM | 0.358 µM | 1.49 µM | 0.468 µM | 1.78 µM |  | 
CCN1/C(=C/C(C)=C/c2sc3ccc4ccccc4c3[n+]2CC)Sc2ccc3ccccc3c21 | 0.165 µM | 0.329 µM | 0.181 µM | 0.571 µM | 0.0271 µM | 0.272 µM | 0.196 µM | 0.58 µM | 0.108 µM | 0.336 µM |  |  | 0.114 µM | 0.277 µM | 0.123 µM | 0.352 µM
COc1cccc2c1C(=O)c1c(O)c3c(c(O)c1C2=O)C[C@](O)(C(=O)CO)C[C@H]3O[C@@H]1C[C@@H](NC(=O)CCCN(C)C2(c3ccc(F)cc3)CC3CCC2C3)[C@H](O)[C@@H](C)O1 (stereo not given in full) | 0.946 µM | 1.72 µM | 6.23 µM | 14.5 µM |  |  | 0.925 µM | 1.73 µM | 0.793 µM | 1.52 µM | 0.836 µM | 1.61 µM | 0.641 µM | 1.49 µM | 0.859 µM | 1.57 µM
CCOc1ccccc1/C=N\N=C(N/N=C/c1ccccc1OCC)N/N=C/c1ccccc1OCC | 4.38 µM | > 100 µM | 1.73 µM | > 100 µM | 2.65 µM | > 100 µM |  |  | 1.53 µM | > 100 µM | 3.44 µM | > 100 µM | 3.24 µM | > 100 µM | 1.69 µM | 3.71 µM
CCCCCCOC(=O)CC1=C(C)/C(=C/c2[nH]c(-c3ccc[nH]3)cc2OC)N=C1C |  |  | 0.163 µM | 0.329 µM | 0.361 µM | 1.26 µM | 0.0342 µM | 0.328 µM | 0.0675 µM | 1.13 µM | 0.0463 µM | 1.12 µM | 0.0384 µM | 1.35 µM |  | 
c1cc(OCCN2CCCC2)ccc1CNc1ccc2nc(CCC3CCCCC3)[nH]c2c1 |  |  | 1.42 µM | 2.75 µM | 2.47 µM | 7.52 µM | 1.6 µM | 3.23 µM | 1.41 µM | 3.16 µM | 1.62 µM | 3.08 µM | 1.85 µM | 3.96 µM | 1.68 µM | 3.1 µM
COC(=O)[C@H](Cc1cn(C)cn1)NC(=O)[C@H](CC(C)C)NC(=O)Nc1cc(C(F)(F)F)cc(C(F)(F)F)c1 | 8 µM | > 10 µM | > 10 µM | > 10 µM |  |  | > 10 µM | > 10 µM | > 10 µM | > 10 µM | > 10 µM | > 10 µM | 5.28 µM | > 10 µM | > 10 µM | > 10 µM
CCCCN(CCCC)P(=O)(Oc1ccccc1)Oc1ccccc1 | 15.3 µM | 29.2 µM |  |  | 5.06 µM | 19.6 µM | 11.6 µM | 25.6 µM | 5.59 µM | 19.1 µM | 6.2 µM | 19.9 µM | 5.41 µM | 19.4 µM | 11.5 µM | 23.7 µM
CCCN(CCC)c1ccc(/C=N/NC(=O)c2cccnc2)c(C)c1 | 16.4 µM | 43.1 µM | 15.6 µM | 38.1 µM | 15.7 µM | 36.8 µM |  |  | 13.3 µM | 26 µM | 5.67 µM | 20.8 µM | 14.8 µM | 35.7 µM | 12.8 µM | 25.4 µM
CC(=O)OCC1OC(SC2=N/C(=C\c3ccc(Br)s3)C(=O)N2c2ccccc2)C(OC(C)=O)C(OC(C)=O)C1OC(C)=O (stereo not given) |  | > 100 µM | 71.4 µM and 32.7 µM | > 100 µM |  |  |  |  | 28 µM and 63.1 µM | > 100 µM | 86.3 µM and 32.2 µM | > 100 µM |  | > 100 µM |  | > 100 µM
COc1ccc(C(=O)/C=C/c2cc(-c3ccc(OC)c(OC)c3)n[nH]2)cc1OC | 1.82 µM | 4.82 µM | 1.5 µM | 3.8 µM | 2.25 µM | 10.2 µM | 1.91 µM | 4.11 µM | 1.2 µM | 2.63 µM |  |  | 1.5 µM | 5.41 µM | 1.58 µM | 2.96 µM
N#Cc1c(N)nc2c(c1-c1ccc(Cl)cc1)COc1ccc(F)cc1-2 |  |  | 13.8 µM | 39.2 µM | 43.5 µM | > 100 µM | 29.8 µM | 96.1 µM | 31.7 µM | > 100 µM | 20.7 µM | 45.2 µM | 31.1 µM | 97.4 µM | 20.6 µM | 37.6 µM
Cc1ccc(-c2cc(C(=O)Nc3ccc(S(=O)(=O)N4CCCCC4)cc3)[nH]n2)c(O)c1 | > 100 µM | > 100 µM | > 100 µM | > 100 µM | > 100 µM | > 100 µM |  |  | > 100 µM | > 100 µM | > 100 µM | > 100 µM | > 100 µM | > 100 µM | > 100 µM | > 100 µM
